Results reported in the supplement of paper PMC10627819.

Assays:
S. aureus Newman [1] = assay: fitness (endpoint OD595 vs no drug) (fraction); higher = more growth
Method in brief: (§1)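 Fitness expresses the optical density reached at the stationary-phase transition as a fraction of the robust mean of no-drug control wells. It is capped at 1. Measurements were OD595 every 30 min for 14 h at 37 °C after inoculation of 384-well plates at OD595 0.01 (30 µl, or 55 µl for S. pneumoniae), minus the first reading.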

B. subtilis 168 [2] = assay: Bliss interaction score (quartile over a dose matrix) (fitness difference); higher = more antagonism (negative = synergy)
Method in brief: (§2)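 Fitness here means normalised growth, inferred for single drugs from the combination data. Growth was OD595 at entry into stationary phase, divided by the plate's robust no-drug mean and capped at 1. The Bliss score is observed minus expected fitness, with the expectation being the product, and its quartiles span technical, biological and donor/recipient replicates.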

S. aureus DSM 20231 = assay: as above
Method in brief: as §2

S. aureus Newman [3] = assay: as above
Method in brief: as §2

S. pneumoniae D39V [4] = assay: as above
Method in brief: as §2

B. subtilis 168 [5] = assay: fitness (endpoint OD595 vs no drug) (fraction); higher = more growth; conditions: partner 100 µg/mL
Method in brief: as §1

S. pneumoniae D39V [6] = assay: as above
Method in brief: as §1
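For Bliss interaction score (quartile over a dose matrix) in this document: first quartile when negative (synergy) and third quartile when positive (antagonism).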
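For fitness (endpoint OD595 vs no drug) in this document: OD595 on entry to stationary phase over no-drug wells; at most 1.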

O=C(N[C@H](CO)[C@H](O)c1ccc([N+](=O)[O-])cc1)C(Cl)Cl [Chloramphenicol] + C/C(=C\C(=O)OCCCCCCCCC(=O)O)C[C@@H]1OC[C@H](C[C@@H]2O[C@H]2[C@@H](C)[C@H](C)O)[C@@H](O)[C@H]1O [Pseudomonic acid]
fitness (S. aureus Newman [1]; first compound 0.75 µg/mL, partner 0.0313 µg/mL, one replicate): 0.0723 | fitness (S. aureus Newman [1]; first compound 0.75 µg/mL, partner 0.0625 µg/mL, one replicate): 0.0337 | fitness (S. aureus Newman [1]; first compound 0.75 µg/mL, partner 0.125 µg/mL, one replicate): 0.062 | fitness (S. aureus Newman [1]; first compound 1.5 µg/mL, partner 0.0313 µg/mL, one replicate): 0.0644 | fitness (S. aureus Newman [1]; first compound 1.5 µg/mL, partner 0.0625 µg/mL, one replicate): 0.0381 | fitness (S. aureus Newman [1]; first compound 1.5 µg/mL, partner 0.125 µg/mL, one replicate): 0.0655 | fitness (S. aureus Newman [1]; first compound 3 µg/mL, partner 0.0313 µg/mL, one replicate): 0.0687 | fitness (S. aureus Newman [1]; first compound 3 µg/mL, partner 0.0625 µg/mL, one replicate): 0.0484 | fitness (S. aureus Newman [1]; first compound 3 µg/mL, partner 0.125 µg/mL, one replicate): 0.0652 | Bliss interaction score (B. subtilis 168 [2]): 0.0522 | Bliss interaction score (S. aureus DSM 20231): 0.0264 | Bliss interaction score (S. aureus Newman [3]): 0.0532 | Bliss interaction score (S. pneumoniae D39V [4]): 0.172

O=C(N[C@H](CO)[C@H](O)c1ccc([N+](=O)[O-])cc1)C(Cl)Cl [Chloramphenicol] + CN[C@@H]1[C@H](O[C@H]2[C@H](O[C@H]3[C@H](O)[C@@H](O)[C@H](N=C(N)N)[C@@H](O)[C@@H]3N=C(N)N)O[C@@H](C)[C@]2(O)C=O)O[C@@H](CO)[C@H](O)[C@H]1O [Streptomycin]
fitness (S. aureus Newman [1]; first compound 0.75 µg/mL, partner 1 µg/mL): 0.755 | fitness (S. aureus Newman [1]; first compound 1.5 µg/mL, partner 1 µg/mL): 0.537 | fitness (S. aureus Newman [1]; first compound 1.5 µg/mL, partner 2 µg/mL): 0.465 | fitness (S. aureus Newman [1]; first compound 3 µg/mL, partner 1 µg/mL): 0.213 | fitness (S. aureus Newman [1]; first compound 3 µg/mL, partner 2 µg/mL): 0.177 | fitness (S. aureus Newman [1]; first compound 3 µg/mL, partner 4 µg/mL): 0.128 | Bliss interaction score (B. subtilis 168 [2]): 0.144 | Bliss interaction score (S. aureus DSM 20231): 0.0438 | Bliss interaction score (S. aureus Newman [3]): -0.0754 | Bliss interaction score (S. pneumoniae D39V [4]): -0.0647

CCCCCCCCCC(=O)N[C@H]1[C@H](Oc2c3cc4cc2Oc2ccc(cc2Cl)[C@@H](O[C@@H]2O[C@H](CO)[C@@H](O)[C@H](O)[C@H]2NC(C)=O)[C@@H]2NC(=O)[C@H](NC(=O)[C@@H]4NC(=O)[C@H]4NC(=O)[C@@H](Cc5ccc(c(Cl)c5)O3)NC(=O)[C@H](N)c3ccc(O)c(c3)Oc3cc(O)cc4c3)c3ccc(O)c(c3)-c3c(O[C@H]4O[C@H](CO)[C@@H](O)[C@H](O)[C@@H]4O)cc(O)cc3[C@@H](C(=O)O)NC2=O)O[C@H](CO)[C@@H](O)[C@@H]1O [Teicoplanin] + CN(C)c1cc(NC(=O)CNC(C)(C)C)c(O)c2c1C[C@H]1C[C@H]3[C@H](N(C)C)C(O)=C(C(N)=O)C(=O)[C@@]3(O)C(O)=C1C2=O [Tigecycline]
fitness (S. aureus Newman [1]; first compound 0.1562 µg/mL, partner 0.039 µg/mL, main component drawn): ≥ 1 | fitness (S. aureus Newman [1]; first compound 0.1562 µg/mL, partner 0.078 µg/mL, main component drawn): ≥ 1 | fitness (S. aureus Newman [1]; first compound 0.1562 µg/mL, partner 0.156 µg/mL, main component drawn): ≥ 1 | fitness (S. aureus Newman [1]; first compound 0.3125 µg/mL, partner 0.039 µg/mL, main component drawn): 0.98 | fitness (S. aureus Newman [1]; first compound 0.3125 µg/mL, partner 0.078 µg/mL, main component drawn): 0.963 | fitness (S. aureus Newman [1]; first compound 0.3125 µg/mL, partner 0.156 µg/mL, main component drawn): ≥ 1 | fitness (S. aureus Newman [1]; first compound 0.62 µg/mL, partner 0.039 µg/mL, one replicate, main component drawn): 0.757 | fitness (S. aureus Newman [1]; first compound 0.62 µg/mL, partner 0.078 µg/mL, one replicate, main component drawn): 0.754 | fitness (S. aureus Newman [1]; first compound 0.62 µg/mL, partner 0.156 µg/mL, one replicate, main component drawn): 0.813 | fitness (S. aureus Newman [1]; first compound 0.625 µg/mL, partner 0.039 µg/mL, main component drawn): ≥ 1 | fitness (S. aureus Newman [1]; first compound 0.625 µg/mL, partner 0.078 µg/mL, main component drawn): ≥ 1 | fitness (S. aureus Newman [1]; first compound 0.625 µg/mL, partner 0.156 µg/mL, main component drawn): ≥ 1 | fitness (S. aureus Newman [1]; first compound 1.24 µg/mL, partner 0.039 µg/mL, one replicate, main component drawn): 0.736 | fitness (S. aureus Newman [1]; first compound 1.24 µg/mL, partner 0.078 µg/mL, one replicate, main component drawn): 0.746 | fitness (S. aureus Newman [1]; first compound 1.24 µg/mL, partner 0.156 µg/mL, one replicate, main component drawn): 0.756 | fitness (S. aureus Newman [1]; first compound 2.48 µg/mL, partner 0.039 µg/mL, one replicate, main component drawn): 0.456 | fitness (S. aureus Newman [1]; first compound 2.48 µg/mL, partner 0.078 µg/mL, one replicate, main component drawn): 0.453 | fitness (S. aureus Newman [1]; first compound 2.48 µg/mL, partner 0.156 µg/mL, one replicate, main component drawn): 0.427 | Bliss interaction score (B. subtilis 168 [2]; main component drawn): 0.123 | Bliss interaction score (S. aureus DSM 20231; main component drawn): 0.108 | Bliss interaction score (S. aureus Newman [3]; main component drawn): 0.0513 | Bliss interaction score (S. pneumoniae D39V [4]; main component drawn): 0.0619

O=C(N[C@H](CO)[C@H](O)c1ccc([N+](=O)[O-])cc1)C(Cl)Cl [Chloramphenicol] + O=C(O)c1cn(C2CC2)c2cc(N3CCNCC3)c(F)cc2c1=O [Ciprofloxacin]
fitness (S. aureus Newman [1]; first compound 0.75 µg/mL, partner 0.0375 µg/mL): 0.644 | fitness (S. aureus Newman [1]; first compound 0.75 µg/mL, partner 0.075 µg/mL): 0.621 | fitness (S. aureus Newman [1]; first compound 0.75 µg/mL, partner 0.15 µg/mL): 0.155 | fitness (S. aureus Newman [1]; first compound 1.5 µg/mL, partner 0.0375 µg/mL): 0.487 | fitness (S. aureus Newman [1]; first compound 1.5 µg/mL, partner 0.075 µg/mL): 0.496 | fitness (S. aureus Newman [1]; first compound 1.5 µg/mL, partner 0.15 µg/mL): 0.212 | fitness (S. aureus Newman [1]; first compound 3 µg/mL, partner 0.0375 µg/mL): 0.154 | fitness (S. aureus Newman [1]; first compound 3 µg/mL, partner 0.075 µg/mL): 0.182 | Bliss interaction score (B. subtilis 168 [2]): 0.161 | Bliss interaction score (S. aureus DSM 20231): 0.0505 | Bliss interaction score (S. aureus Newman [3]): 0.126 | Bliss interaction score (S. pneumoniae D39V [4]): -0.0621

CCC[C@@H]1C[C@@H](C(=O)N[C@@H]([C@H]2O[C@H](SC)[C@H](O)[C@@H](O)[C@H]2O)[C@@H](C)O)N(C)C1 [Lincomycin] + CN(C)C(=O)C(CCN1CCC(O)(c2ccc(Cl)cc2)CC1)(c1ccccc1)c1ccccc1 [Loperamide]
fitness (B. subtilis 168 [5]; first compound 0.1 µg/mL): 0.0294 | fitness (B. subtilis 168 [5]; first compound 0.2 µg/mL): 0.0794 | fitness (B. subtilis 168 [5]; first compound 0.4 µg/mL): 0.0368 | fitness (S. pneumoniae D39V [6]; first compound 0.2 µg/mL, partner 17.14 µg/mL): 0.799 | fitness (S. pneumoniae D39V [6]; first compound 0.2 µg/mL, partner 34.28 µg/mL): 0.811 | fitness (S. pneumoniae D39V [6]; first compound 0.2 µg/mL, partner 68.57 µg/mL, one replicate): 0.87 | fitness (S. pneumoniae D39V [6]; first compound 0.215 µg/mL, partner 20 µg/mL): 0.902 | fitness (S. pneumoniae D39V [6]; first compound 0.215 µg/mL, partner 40 µg/mL): 0.911 | fitness (S. pneumoniae D39V [6]; first compound 0.215 µg/mL, partner 80 µg/mL): 0.897 | fitness (S. pneumoniae D39V [6]; first compound 0.4 µg/mL, partner 17.14 µg/mL): 0.725 | fitness (S. pneumoniae D39V [6]; first compound 0.4 µg/mL, partner 34.28 µg/mL): 0.685 | fitness (S. pneumoniae D39V [6]; first compound 0.4 µg/mL, partner 68.57 µg/mL, one replicate): 0.769 | fitness (S. pneumoniae D39V [6]; first compound 0.43 µg/mL, partner 20 µg/mL): 0.827 | fitness (S. pneumoniae D39V [6]; first compound 0.43 µg/mL, partner 40 µg/mL): 0.83 | fitness (S. pneumoniae D39V [6]; first compound 0.43 µg/mL, partner 80 µg/mL): 0.809 | fitness (S. pneumoniae D39V [6]; first compound 0.8 µg/mL, partner 17.14 µg/mL): 0.535 | fitness (S. pneumoniae D39V [6]; first compound 0.8 µg/mL, partner 34.28 µg/mL): 0.44 | fitness (S. pneumoniae D39V [6]; first compound 0.8 µg/mL, partner 68.57 µg/mL, one replicate): 0.54 | fitness (S. pneumoniae D39V [6]; first compound 0.86 µg/mL, partner 20 µg/mL): 0.599 | fitness (S. pneumoniae D39V [6]; first compound 0.86 µg/mL, partner 40 µg/mL): 0.632 | fitness (S. pneumoniae D39V [6]; first compound 0.86 µg/mL, partner 80 µg/mL): 0.525 | Bliss interaction score (B. subtilis 168 [2]): -0.175 | Bliss interaction score (S. aureus DSM 20231): -0.058 | Bliss interaction score (S. aureus Newman [3]): -0.0788 | Bliss interaction score (S. pneumoniae D39V [4]): 0.187
